The source of these data is patent publication US20240382564A1, “Methods and Compositions for Treating Muscular Dystrophy and Memory Impairment” (Allysta Pharmaceuticals, Inc., priority 2023, published 2024).

The test system of assay [1] is D2.mdx mice. Nature of the assay: Fibre-type specific minimal Feret's diameter (muscle atrophy), myosin heavy chain immunofluorescence. It is filed as in vivo, mouse. On the procedure: (§1) D2.mdx mice were treated with ALY688 at two different dosages; high dose (HD; 15 mg/kg body weight/day) or low dose (LD; 3 mg/kg body weight/day) dissolved in saline. A separate group of mice were treated with saline alone (VEH, vehicle). Treatment was provided via subscapular subcutaneous injections from 7 days of age to 28-30 days. […] At 28-30 days of age, mice were anaesthetized with isoflurane vaporized in medical air (21% oxygen) at a 2 L/min flow rate. Due to tissue limitations in limb muscle, certain measures were performed separately in tibialis anterior and quadriceps across several phases of breeding. Following the treatment protocol, in situ quadriceps force assessments were then performed in one limb followed by removal of the quadriceps from the other limb for mitochondrial assessments, diaphragm for in vitro force assessments and finally other tissues for further processing as described below. Muscle and visceral organs weights were normalized to tibia length. Tissue collected from the first phase were utilized in force, histological, mitochondrial measures (respiration, mH2O2 and calcium retention capacity) and western analyses (diaphragm and quadriceps only). A second phase was then collected and utilized for cytokine profiling, qPCR analyses and additional westerns (TA only). Serum was collected from both phase 1 and 2 and utilized for serum CK analysis. All animals were utilized in in vivo functional assays (grip strength, cage hang time and voluntary wheel running).
Samples collected were cut into 8 µm thick serial cross sections with a cryostat (Thermo Fisher Scientific; Kalamazoo, MI, United States;) maintained at −20° C. on Fisherbrand Superfrost Plus slides (Thermo Fisher Scientific). Hematoxylin and eosin (H&E) and Masson's trichrome staining was used to assess muscle health and fibrosis. Centralized nuclei, a marker of regenerating fibres, was analyzed by selecting five evenly spaced images throughout the muscle and averaging the result. Areas of damage (fibres with fragmented sarcoplasm and immune cell infiltration) were expressed as a percentage of the entire muscle section. Images were taken using EVOS M7000 imager (Thermo Fisher Scientific) using 20× magnification and analyzed using ImageJ (http://imagej.nih.gov/ij/). To determine fibrotic area, skeletal muscle sections were stained with Masson's Trichrome (fibrotic regions stain blue for collagen) and expressed as a percentage of a region of interest, which included the entire muscle section with any artifacts removed. Sections were imaged Nikon 90i-eclipse microscope (Nikon Inc., Melville, NY) and analysed with the NIS Elements AR software (v4.6, Nikon). […] These images were then analyzed with ImageJ for minimal Feret's diameter as an index of muscle atrophy.

Assay [2] has as its system D2.mdx mice. Nature of the assay: Western blotting of electron transport chain complex subunits in muscle. It is filed as in vivo, mouse. On the procedure:
as §1
Frozen sections of quadriceps and diaphragm from each muscle (approximately 10-30 mg in size) were homogenized using a plastic microcentrifuge tube with tapered Teflon pestle in ice-cold lysis buffer containing (in mM) (20 Tris/HCl, 150 NaCl, 1 EDTA, 1 EGTA, 1% Triton X-100, 2.5 Na4O7P2, 1 Na3VO4, pH 7.0) supplemented with protease (Sigma) and phosphatase inhibitors (Roche). A 12% gel was used to separate electron transport chain proteins and all other proteins were separated on a 10% gel. Following, all gels were transferred onto 0.2μm low fluorescence PVDF membrane (Bio-Rad, Mississauga, Canada) and blocked with Li-COR Intercept Blocking Buffer (LI-COR, Lincoln NE, USA) for 1 hour. Membranes were then incubated with specific primary antibodies (listed below) overnight at 4° C. A commercially available monoclonal rodent OXPHOS Cocktail (ab110413; Abcam, Cambridge, UK, 1:250 dilution) including V-ATP5A (55 kDa), III-UQCRC2 (48 kDa), IV-MTCO1 (40 kDa), II-SDHB (30 kDa), and I-NDUFB8 (20 kDa) were used to detect electron transport chain proteins. […] Prior to detection, membranes were washed in TBS-T three times for 5 minutes and then imaged using infrared imaging (LI-COR CLx; LI-COR, Lincoln, NE, USA) and quantified by densitometry (ImageJ, http://imagej.nih.gov/ij/). […]
A general note: A western blot detects proteins with antibodies after separation by electrophoresis.

Where no end group is shown, it is not given here. [ ]: non-standard residue; d: D form. Nva = CCC[C@H](N)C(=O)O

As for [dN]IP[Nva]LY[dS]FA[dS]-NH2 [ALY688], the “atrophy in MHC I fibers (minimal feret diameter)” value in the assay on D2.mdx mice [1] (diaphragm, HD 15 mg/kg/day) was “completely prevented atrophy”. The “minimal feret diameter, IIA fibers” value in the assay with D2.mdx mice [1] (diaphragm, HD, WT 24, VEH 20) amounted to 22 μm. Further, in the assay with D2.mdx mice [1] (diaphragm, HD, WT 26, VEH 23), the “minimal feret diameter, IIB fibers” value was found to be 24 μm. In the assay with D2.mdx mice [1] (tibialis anterior, between the groups), the “minimal feret diameter in any fiber type” value is on record as “no differences”. Also, the “complex IV content” value with D2.mdx mice [2] (diaphragm, LD) is −27.0 % vs WT. Moreover, the “total sum of electron transport chain complexes” value in the assay on D2.mdx mice [2] (diaphragm, disease state groups) is listed as −13.8 to −19.3 % vs WT; in the assay with D2.mdx mice [2] (quadriceps, HD), −29.1 % vs WT. In addition, in the assay on D2.mdx mice [2] (quadriceps and diaphragm, disease state groups (VEH, LD, HD)), the “specific subunits of complex III and V” value is given as −14.7 to −31.5 % vs WT.
